Test results reported in patent EP3939596A1, “A COMPOSITION FOR TREATING HELMINTH INFESTATION IN A MAMMAL” (Bimeda Animal Health Limited, priority 2020, dated 2022).

Tests used:
adult fluke = assay: In-vivo efficacy study: fluke counts at post mortem in infected sheep after oral treatment, compared with untreated control sheep; settings: 50 mg/kg
Experimental: Four sheep infected with adult fluke were treated with an IVL-11 oral solution formulation of Table 1: Table 1
The solution was orally administered to the sheep to provide a dosage of α-hederin of 50 mg/kg and then worm counts compared to counts in untreated control sheep. Table 2: summary of efficacy following treatment of four sheep with IVL-11 orally at 50mg/kg compared with fluke counts in untreated control sheep

[1] = Stability of α-hederin solutions on storage (visual); format: physicochemical; settings: for stability of solution: 10 wt.% α-hederin in 85.5 wt.% 1,2-Propanediol and 4.5 wt.% Benzyl alcohol
[2] = Plasma/blood level after oral administration; format: in vivo; settings: treated sheep
Excerpt: The Applicant has addressed the problems of the prior art by identifying a natural compound present in ivy (Hedera) that is effective at treating helminth infestations in a mammal. The natural compound is α-hederin, a water soluble pentacyclic triterpenoid saponin. The compound is quite a large molecule and would not be anticipated to be absorbed from the rumen following oral administration, but would be expected to be absorbed from the small intestine. […] This is highly surprising given the low plasma levels of α-hederin in treated sheep.
IVL-11 is a relatively large particle and so would not be anticipated to be absorbed from the rumen following oral administration. Instead, absorption from the small intestine would be predicted.

[3] = Solubility of α-hederin in 1,2-propanediol; format: physicochemical

α-hederin [IVL-11]
Arithmetic mean number of fluke at post mortem (adult fluke; oral solution, 4 sheep): 83 | % efficacy (reduction in average fluke numbers compared to the control sheep) (adult fluke; oral, vs untreated control sheep): 21.6% | stability (appearance) of solution in 1,2-propanediol ([1]; 5 % solution, 13 days at room temperature): cloudy at the top | stability (appearance) of solution in 1,2-propanediol ([1]; 10 % solution, 13 days at room temperature): became cloudy | stability of solution ([1]; 6 months at 5°C): stable | stability of solution ([1]; 6 months at room temperature): stable | stability (appearance) of solution in 1,2-propanediol ([1]; 35°C, over 3 weeks): no visible changes | plasma / blood levels following administration in vivo [2]: low | solubility in 1,2-propanediol ([3]; 5% α-hederin in 1,2-propanediol): soluble | solubility in 1,2-propanediol ([3]; 10% α-hederin in 1,2-propanediol): soluble
